Biological target: T1, human ferroportin (Homo sapiens, UniProt Q9NP59)
T1 construct: expressed in transfected cells
T1 sequence (Q9NP59 1-571): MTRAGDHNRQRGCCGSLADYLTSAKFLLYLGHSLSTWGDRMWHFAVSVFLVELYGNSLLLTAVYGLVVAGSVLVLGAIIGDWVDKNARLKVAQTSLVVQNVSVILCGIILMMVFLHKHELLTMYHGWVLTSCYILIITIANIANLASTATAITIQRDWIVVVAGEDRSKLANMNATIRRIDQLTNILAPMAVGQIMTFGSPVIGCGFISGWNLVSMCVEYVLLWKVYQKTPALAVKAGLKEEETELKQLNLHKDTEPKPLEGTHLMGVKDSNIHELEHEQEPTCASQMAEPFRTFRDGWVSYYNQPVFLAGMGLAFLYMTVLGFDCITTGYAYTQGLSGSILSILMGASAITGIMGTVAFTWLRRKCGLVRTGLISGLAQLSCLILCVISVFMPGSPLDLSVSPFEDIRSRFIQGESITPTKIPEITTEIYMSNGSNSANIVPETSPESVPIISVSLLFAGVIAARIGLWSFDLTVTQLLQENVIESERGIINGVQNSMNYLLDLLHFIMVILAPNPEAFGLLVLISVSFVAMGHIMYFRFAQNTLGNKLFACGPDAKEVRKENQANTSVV
Test: ferroportin internalization assay (inhibition of hepcidin-induced internalization of Fpn)
Format: cell-based
Details: MDCK-FPN-HaloTag cells, 100 nM hepcidin, overnight incubation; concentration range from 0.04 to 40 μM
In short: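 MDCK cells stably expressing human ferroportin–HaloTag were labelled with TMR ligand, then incubated overnight at 37 °C with compound plus 100 nM hepcidin (final). After fixation and nuclear staining, confocal imaging quantified membrane Fpn fluorescence to measure blocking of hepcidin-induced internalization.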

SMILES | IC50
CN(C)CCNc1cc2c(c3ncccc13)NS(=O)(=O)c1ccccc1-2 [Example 546, N′-(6,6-Dioxo-5,6-dihydro-6λ*6*-thia-4,5-diaza-chrysen-12-yl)-N,N-dimethyl-ethane-1,2-diamine] | 9980 nM
CN1C(c2ccc(F)c(C(=O)N3CCOCC3)c2)c2ccc3cccnc3c2NS1(=O)=O (centres unmarked) [Example 428, [2-Fluoro-5-(2-methyl-3,3-dioxo-1,2,3,4-tetrahydro-3λ*6*-thia-2,4,5-triaza-phenanthren-1-yl)-phenyl]-morpholin-4-yl-methanone] | 2620 nM
N#Cc1ccc(S(=O)(=O)Nc2cc(OC(F)(F)F)cc3cccnc23)cn1 [Example 238, 6-Cyano-pyridine-3-sulfonic acid (6-trifluoromethoxy-quinolin-8-yl)-amide] | 2110 nM
O=S(=O)(Nc1cc(OC(F)(F)F)cc2cccnc12)c1ccccc1 [Example 92, N-(6-Trifluoromethoxy-quinolin-8-yl)-benzenesulfonamide] | 9000 nM
N#Cc1ccc(S(=O)(=O)Nc2cccc3cccnc23)cn1 [Example 116, 6-Cyano-pyridine-3-sulfonic acid quinolin-8-ylamide] | 4260 nM

Now those with a lower IC50, led by results:

IC50 | SMILES
300 nM | Cc1ccc(S(=O)(=O)Nc2cccc3cccnc23)c(N)c1 [Example 14, 2-Amino-4-methyl-N-quinolin-8-yl-benzenesulfonamide]
1620 nM | O=S1(=O)Nc2c(cc(Cl)c3cccnc23)-c2cc(N3CCOCC3)ccc21 [Example 509, 12-Chloro-9-morpholin-4-yl-5H-6-thia-4,5-diaza-chrysene 6,6-dioxide]
989 nM | O=S(=O)(Nc1cccc2cccnc12)c1ccc(Cl)cc1Cl [Example 41, 2,4-Dichloro-N-quinolin-8-yl-benzenesulfonamide]
